Structures are written as SMILES. “And” between values parts separate entries of the source, which are not always exact repeats. Equal values may be shown once. Inconclusive results and toxic doses are left out.

The assay relates to P388 leukemia ip, CD2F1 mice, survival T/C. Nature of the assay: NCI In Vivo Anticancer Drug Screen. Data for tumor model P388 Leukemia (intraperitoneal) in CD2F1 (CDF1) mice. Particulars: endpoint: median survival time, higher = longer survival. The method in brief: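 Mice carrying the transplanted tumor received test compound or vehicle. Survival was recorded in each group, and the value is the treated-group measurement divided by that of the vehicle-treated control group.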

The mark [1] stands for this setting: dose: 50.0 mg/kg/injection, schedule: Q01DX009 (ip), vehicle: saline with Tween-80.
The mark [2] stands for this setting: dose: 100.0 mg/kg/injection, schedule: Q01DX009 (ip), vehicle: saline with Tween-80.
[3] abbreviates: dose: 200.0 mg/kg/injection, schedule: Q01DX009 (ip), vehicle: saline with Tween-80.
[4] abbreviates: dose: 50.0 mg/kg/injection, schedule: Q01DX005 (ip), vehicle: saline with Tween-80.
Setting [5] is: dose: 200.0 mg/kg/injection, schedule: Q01DX005 (ip), vehicle: saline with Tween-80.
The mark [6] stands for this setting: dose: 30.0 mg/kg/injection, schedule: Q01DX005 (ip), vehicle: Klucel (hydroxypropylcellulose) (HPC).
The mark [7] stands for this setting: dose: 60.0 mg/kg/injection, schedule: Q01DX005 (ip), vehicle: Klucel (hydroxypropylcellulose) (HPC).
Where [8] appears, read: dose: 50.0 mg/kg/injection, schedule: Q01DX005 (ip), vehicle: Klucel (hydroxypropylcellulose) (HPC).
Where [9] appears, read: dose: 100.0 mg/kg/injection, schedule: Q01DX005 (ip), vehicle: Klucel (hydroxypropylcellulose) (HPC).
Setting [10] is: dose: 100.0 mg/kg/injection, schedule: Q01DX005 (ip), vehicle: saline with Tween-80.

With `CCOC(=O)CCCCCNc1nc(Cl)nc(Cl)n1`, the T/C is 98 % of control under setting [1], 103 % of control under setting [2] and 87 % of control under setting [3].
The corresponding values for `Cc1ccc(S(=O)(=O)C(=O)N2CCN(C(=O)S(=O)(=O)c3ccc(C)cc3)CC2)cc1` are 100 % of control, 107 % of control and 109 % of control.
Consider `[Cl][Pd][Cl].[NH-]C(CO)C(=O)O` (stereo unspecified), for which the T/C reads like this: (dose: 12.5 mg/kg/injection, schedule: Q01DX005 (ip), vehicle: saline) 94 % of control; (dose: 25.0 mg/kg/injection, schedule: Q01DX005 (ip), vehicle: saline) 102 % of control; (dose: 50.0 mg/kg/injection, schedule: Q01DX005 (ip), vehicle: saline) 106 % of control and 98 % of control.
As for `Cc1c2c(cc3c1[nH]c1ccccc13)C(=O)c1ccccc1C2=O`, the T/C (dose: 12.5 mg/kg/injection, schedule: Q01DX005 (ip), vehicle: saline with Tween-80) is 94 % of control; the T/C (dose: 25.0 mg/kg/injection, schedule: Q01DX005 (ip), vehicle: saline with Tween-80) was 95 % of control; the T/C under setting [4] is 92 % of control and 94 % of control; the T/C under setting [5] was 87 % of control.
For the compound `CNc1cc(Cl)c(Cl)cc1[N+](=O)[O-]`, the T/C runs as follows: (dose: 37.5 mg/kg/injection, schedule: Q04DX003 (ip), vehicle: saline sonified) 95 % of control; (dose: 75.0 mg/kg/injection, schedule: Q04DX003 (ip), vehicle: saline sonified) 95 % of control; (dose: 150.0 mg/kg/injection, schedule: Q04DX003 (ip), vehicle: saline sonified) 95 % of control.
As to `OC1(c2ccccc2C(O)(C(F)(F)F)C(F)(F)F)OC(C(F)(F)F)(C(F)(F)F)c2ccccc21` (stereo unspecified), the T/C runs as follows: (dose: 12.5 mg/kg/injection, schedule: Q01DX009 (ip), vehicle: Klucel (hydroxypropylcellulose) (HPC)) 101 % of control; (dose: 25.0 mg/kg/injection, schedule: Q01DX009 (ip), vehicle: Klucel (hydroxypropylcellulose) (HPC)) 99 % of control; (dose: 50.0 mg/kg/injection, schedule: Q01DX009 (ip), vehicle: Klucel (hydroxypropylcellulose) (HPC)) 99 % of control.
For `CC(=O)C1=CC(C)(C)OC1=O`, the T/C is 103 % of control (dose: 100.0 mg/kg/injection, schedule: Q04DX002 (ip), vehicle: saline with Tween-80) and 109 % of control (dose: 200.0 mg/kg/injection, schedule: Q04DX002 (ip), vehicle: saline with Tween-80).
Turning to `Cc1nc2cc(N(C)C)ccc2c(Cl)c1C(N)=O`, the T/C (dose: 15.0 mg/kg/injection, schedule: Q01DX005 (ip), vehicle: Klucel (hydroxypropylcellulose) (HPC)) was 100 % of control; the T/C under setting [6] is 99 % of control; the T/C under setting [7] was 100 % of control and 96 % of control.
As to `O=C1OC(C(O)CO)C(=N\Nc2ccc(Cl)cc2)/C1=N/Nc1ccccc1` (stereo unspecified), the T/C reads like this: (dose: 100.0 mg/kg/injection, schedule: Q01DX001 (ip), vehicle: Klucel (hydroxypropylcellulose) (HPC)) 103 % of control; (dose: 200.0 mg/kg/injection, schedule: Q01DX001 (ip), vehicle: Klucel (hydroxypropylcellulose) (HPC)) 103 % of control; (dose: 400.0 mg/kg/injection, schedule: Q01DX001 (ip), vehicle: Klucel (hydroxypropylcellulose) (HPC)) 110 % of control.
As for `CC(C)NC(=O)OCc1c(COC(=O)NC(C)C)c(-c2ccc(Cl)c(Cl)c2)n2c1C[C@@H](O)C2`, the T/C reads like this: (dose: 2.5 mg/kg/injection, schedule: Q01DX005 (ip), vehicle: Klucel (hydroxypropylcellulose) (HPC)) 120 % of control; (dose: 5.0 mg/kg/injection, schedule: Q01DX005 (ip), vehicle: Klucel (hydroxypropylcellulose) (HPC)) 120 % of control; under setting [8], 150 % of control; under setting [9], 166 % of control.
Consider `O=C1C2=C(Nc3cc([N+](=O)[O-])ccc3N2)OC1c1ccccn1` (stereo unspecified), for which the T/C was 119 % of control under setting [6]; 122 % of control under setting [7]; 121 % of control (dose: 120.0 mg/kg/injection, schedule: Q01DX005 (ip), vehicle: Klucel (hydroxypropylcellulose) (HPC)).
In the case of `COc1ccc(/C=C2/Oc3c(Br)c(OC)cc(OC)c3C2=O)cc1`, the T/C (dose: 25.0 mg/kg/injection, schedule: Q01DX005 (ip), vehicle: Klucel (hydroxypropylcellulose) (HPC)) is 98 % of control; the T/C under setting [8] was 98 % of control; the T/C under setting [9] is 96 % of control; the T/C (dose: 200.0 mg/kg/injection, schedule: Q01DX005 (ip), vehicle: Klucel (hydroxypropylcellulose) (HPC)) was 97 % of control.
For the compound `O=C(SC(O)c1ccc([N+](=O)[O-])cc1)c1ccccc1` (stereo unspecified), the T/C is 101 % of control (dose: 100.0 mg/kg/injection, schedule: Q04DX003 (ip), vehicle: Klucel (hydroxypropylcellulose) (HPC)); 106 % of control (dose: 200.0 mg/kg/injection, schedule: Q04DX003 (ip), vehicle: Klucel (hydroxypropylcellulose) (HPC)); 101 % of control (dose: 400.0 mg/kg/injection, schedule: Q04DX003 (ip), vehicle: Klucel (hydroxypropylcellulose) (HPC)).
On to `OC1c2ccccc2-c2ccc(N(Cc3ccc(Br)cc3)Cc3ccc(Br)cc3)cc21` (stereo unspecified), for which the T/C runs as follows: under setting [4], 100 % of control; under setting [10], 91 % of control; under setting [5], 92 % of control.
Consider `O=C(Nc1ccc(Sc2ccc(N=Nc3c(O)c(S(=O)(=O)O)cc4cc(S(=O)(=O)O)ccc34)cc2)cc1)c1ccc(N=Nc2c(O)c(S(=O)(=O)O)cc3cc(S(=O)(=O)O)ccc23)cc1`, for which the T/C runs as follows: under setting [4], 98 % of control; under setting [10], 104 % of control; under setting [5], 104 % of control.
In the case of `COc1cc(N=Nc2ccccc2)cc(/C=N\NC(=S)Nc2cccc(C)c2)c1O`, the T/C under setting [4] is 87 % of control.
As for `CC(=O)OCC(O)CS(=O)c1ccc(C)cc1` (stereo unspecified), the T/C is 100 % of control (dose: 25.0 mg/kg/injection, schedule: Q01DX009 (ip), vehicle: saline with Tween-80); 99 % of control under setting [1]; 98 % of control under setting [2].

The values are drawn from PubChem BioAssay AID330 (DTP/NCI, 2004).
